Test [1] deals with T1, paf receptors of formaldehyde-treated platelets (Homo sapiens, UniProt P25105).
T1 construct: endogenous in cells; host or cells: washed platelets fixed with 1% formaldehyde for 30 min
Description: Binding of [3H]alkyl-paf to formaldehyde-fixed platelets (FIGS. 6 and 7). To be noted: 30 min; for inhibition of bound [3H]alkyl-paf to stiffened platelets: FIG. 7, [3H]alkyl-paf 0.65 nM, 20° C., n=4. On the procedure: An extract of whole blood, namely “biological paf” replaces [^3H]alkyl-paf out of the binding and bind to similar alkyl receptors. This competitive inhibition is paralleled with similar effects of synthetic paf and with Ginkgoloides wherein WEB 2086 is used here as the known guiding substance for chlorobenzo(dia)zepines.
“Biological paf” is used here for the first time as non-separated ethanol extract of whole blood (without HPLC). This dry extract is diluted before it is quantified using aggregation of rabbit platelets in the presence of aspirin and CP/CPK. The novel methods allow for the first time testings without albumin so that alkyl ligands with lower cell affinity compared to albumin can bind in a detectable manner. For example, alkyl lipids without the choline group (alkyl-LPA) bind otherwise in deeper regions of the membranes of untreated cells and/or are rapidly incorporated into free albumin. In addition, the method is independent from calcium so that also calcium-independent alkyl ligands can be inhibited here (e.g. lyso paf). The clinical success against alkyl ligands is thus supported and can be carried out by skilled persons.
The FIGS. 5 to 7 thus show the novel screening procedure solves a novel technical problem, namely the variety of damaging alkyl lipids. The quantification is easier using fixed cells as the difficult acetylation step of alkyl lipids is removed which is required for calcium dependent quantification methods. Using fixed cells, cell lines also labelled antibodies and/or soluble transport-binding proteins can be tested and produced.
(§1) FIGS. 5 to 7 investigated for the first time binding of [^3H]alkyl-paf or [^3H]acetyl group after treatment with formaldehyde (1%, 30 min) comparing different temperatures, indicated concentrations and said Ginkgoloides. The allosteric binding of [^3H]alkyl groups was reached only at 20° C. while [^3H]acetyl groups bound at 4° C. excluding allosteric effects.
Platelets were treated with formaldehyde (1%, 30 min, n=6). Values are expressed as bound [^3H]alkyl-paf to […]. […]

Test [2] has as its system human neutrophils. The experiment in a line: Formation of labeled AAGPC+LA-paf by neutrophils (FIG. 4). The conditions noted are these: 0.25% BSA. It counts as cell-based. The protocol:
The non-differentiated washed blood leukocytes incorporate here [^3H]alkyl-paf with intermediate of [^3H]alkyl-lyso paf and form alkyl lipids (AAGPC+LA paf) in a saturated manner (A: 0.65 nM vs. B: 6.5 nM) wherein unlabelled paf fails to replace (B, 5 nM). Thus, at least one non-specific transport protein is indicated (e.g. acetylhydrolase) on undifferentiated cells. The less differentiated cells are invented here as a model for monocytes, endothelial cells, glia cells, cartilage cells, adipocytes, endogenous stem cells etc. The acetylhydrolases on plasma membranes of leukocytes remove alkyl lipids and these cells are then pre-activated, differentiated and ready to emigrate. Non-specific antagonists e.g. free albumin protect against alkyl ligands and compete with cells for binding of alkyl lipids. The fatty decline of cells in the entire organisms is clinically healed here. […]
Washed intact cells were incubated with normal or excess concentrations of [^3H]-alkyl-paf forming then the stable amount of AAGPC & LA (A: 0.65 nM or B: 6.5 nM). […] Values are expressed as percent of added label (2.5×10^6 cells/500μl, 0.25% BSA, n=3, see R.-M. Korth, Int. Arch. All. Imm. 113, p 460-464, 1997). […]

In test [3] the test system is metabolic syndrome mediated by LA-paf. The conditions noted are these: Wu et al. J. Int. Med. 246, 1999; cited from earlier work.
The subject of test [4] is washed aspirinated platelets. Description: Binding of [3H]alkyl-paf / [3H]alkyl-lyso paf to washed aspirinated platelets and formation of AAGPC, LA-paf (FIG. 2). The conditions noted are these: FIG. 2C; normolipidemic platelets, [3H]-alkyl-lyso paf 0.065 nM, 40 nM antagonist, 0.25% BSA. It counts as cell-based, human. On the procedure: These women with “OMIH”-syndrome show overweight (aged 34±11 years, BMI: […]), raised LDL (167±15 mg/dl, HDL: 76±41 mg/dl) and triglyceride levels (206±27 mg/dl) borderline hypertension (125±13/88±10 mmHg) and disturbed glucose tolerance (1 h: 170±61 mg/dl).
Ginkgoloides with free albumin (BSA) inhibited here the binding of [^3H]alkyl-paf to “OMIH”-platelets after three washes (FIG. 2 A+B). […] Normolipidemic platelets do nearly not incorporate [^3H]alkyl-paf or [^3H]alkyl-lyso paf and form nearly no AAGPC and LA-paf in the presence of Ginkgoloides and free albumin (FIG. 2C).
AAGPC and LA-paf are chemically alkyl-acyl-sn-glycero-phosphocholines. […] Values are fmol per 10^8 platelets and are means±1 S.D. from three different experiments as described (R. Korth et al. Chem. Phys. Lipids 70(1994), 109-119).

Test [5] concerns the target T1, paf receptors of formaldehyde-treated platelets. Description: Binding of [3H]acetyl paf to formaldehyde-fixed platelets at 4° C. (FIG. 5). To be noted: unlabeled paf 50 nM, [3H]acetyl paf 0.65 nM or 0.065 nM. On the procedure:
(FIG. 5D versus 5C). The allosteric alkyl effects are inhibited by stiffening of the membrane so that the scavenger-like allosteric configuration change of cells is shown as mentioned before. In contrast, the [^3H]acetyl group of paf binds at 4° C. to fixed cells treated prior to the last wash with formaldehyde to be subsequently cooled and stiffened (1%, 30 min, A+B). The acetyl group binds and covers paf receptors without allosteric upregulation so that acetylating compounds are using this effect in accordance with the invention.
as §1
Unlabeled paf (50 nM) competed showing specific binding of [^3H]acetyl paf. […] Next, [^3H]alkyl-paf failed binding to stiffened platelets at 4° C. showing moderate specific binding only at 20° C. (C: 0.65 nM, 30 min, 20° C.). […] Values are expressed as bound labelled ligands to 10^8 platelets. Platelets were separated with vacuum filtration and means±1 S.D. are from three experiments.

For test [6], the system named is intact human platelets. The experiment in a line: Lipoprotein-triggered catabolism of [3H]alkyl-paf and formation of AAGPC and LA-paf by intact platelets (FIG. 3). It counts as cell-based. To be noted: FIG. 3 C+D; [3H]alkyl-paf 0.65 nM; apo B 0.1 mg/ml, VLDL 80 μg/ml. The protocol:
Only LDL but not ApoB and not VLDL overcome the protection by albumin (FIG. 3E versus 3D). […] In the presence (A+C) or absence (B) of washed platelets nearly no AAGPC with derivatives and products is formed. The acetylhydrolases form lyso paf and LDL, of apoB and VLDL also form lyso paf whereby the uptake of lyso paf is triggered by LDL.
[^3H]alkyl-lyso paf was stable in the albumin buffer as well (B: 0.25% BSA, 30 min, 20° C.). […] Overall, purified LDL-particles rather than isolated apoB trigger uptake and formation of AAGPC and/or LA-paf. Values are expressed as percent of added label bound to platelets. Cells were separated using vacuum filtration as described (R. Korth et al. Chem. Phys. Lipids 70, 109-119, 1994). Values were expressed as percent of added label. Values are means±1.S.D. of three different experiments.

We go through 5 compounds from patent publication US11039997B2, “Cosmetic, dermatic, protective compositions comprising phospholipids, lecithins with peptides and at least one acetylating compound” (priority 2005, dated 2021).

T1 sequence (P25105 whole entry): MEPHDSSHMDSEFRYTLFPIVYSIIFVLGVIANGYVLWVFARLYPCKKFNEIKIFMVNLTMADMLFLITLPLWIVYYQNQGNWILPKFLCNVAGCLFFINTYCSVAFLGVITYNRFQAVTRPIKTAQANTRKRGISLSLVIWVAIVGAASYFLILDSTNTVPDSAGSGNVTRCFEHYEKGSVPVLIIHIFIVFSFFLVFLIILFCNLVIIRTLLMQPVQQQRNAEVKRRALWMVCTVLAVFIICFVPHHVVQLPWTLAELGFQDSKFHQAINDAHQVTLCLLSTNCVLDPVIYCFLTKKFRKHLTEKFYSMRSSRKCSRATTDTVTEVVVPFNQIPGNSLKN

In the case of `CC1C(=O)OC2C(O)C34C5CC(C(C)(C)C)C36C(OC(=O)C6O)OC4(C(=O)O5)C12O` (stereo not drawn) [BN 52021], the “inhibition of bound [3H]alkyl-paf” value in test [1] (FIG. 6, platelets treated with formaldehyde 1%, 30 min 20° C.) is on record as “concentration-dependent inhibition”. In the case of “Purified albumin: free, delipidated albumin (BSA), representative non-specific antagonist”, the “protection of intact cells as non-specific antagonist” value in test [2] is on record as “protected”.

`Cc1nnc2n1-c1sc(CCC(=O)N3CCOCC3)cc1C(c1ccccc1Cl)=NC2` [WEB 2086]: the “treatment of metabolic syndrome with thickening of the intima and borderline hypertension” value in test [3] is “successfully treated”. In addition, the “inhibition of bound [3H]alkyl-paf to stiffened platelets” value in test [1] was “inhibited”. In addition, the “formation of cellular metabolites (AAGPC, LA-paf) from [3H]-alkyl-lyso paf” value in test [4] is “without relevant formation of indicated cellular metabolites”. For `CCCCCCCCCCCCCCCCOC[C@H](COP(=O)([O-])OCC[N+](C)(C)C)OC(C)=O` [synthetic paf], the “competition with formation of AAGPC/LA-paf” value in test [2] (unlabeled paf 5 nM, [3H]-alkyl-paf 0.65 nM or 6.5 nM, n=3) is listed as “did not compete”. The “inhibition of bound [3H]alkyl-paf to stiffened platelets” value in test [1] was “inhibited at low concentrations”. Further, the “competition with [3H]acetyl paf binding” value in test [5] was “competed”. On to ApoB: isolated apo B (Sigma Chemical), for which the “formation of lyso paf and cellular uptake” value in test [6] is “form lyso paf without cellular uptake”.
